# Results: ChEMBL document CHEMBL1201862, “PubChem BioAssay data set” (2004)
# Active and inactive are the calls of the source.
# Assays:
# [1] = alpha-synuclein stem-loop luciferase translation blockers – H4 neuroglioma cells, luminescence, confirmation (AID 1988); type: functional, cell-based
# [2] = Trypanosoma cruzi growth suppression in host cells – NIH3T3 host cells, beta-gal luminescence, confirmation (AID 2044); type: functional, cell-based;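 further: intracellular parasites grown in NIH/3T3 mouse fibroblasts as host cells; luminescent beta-galactosidase reporter signal from transgenic T. cruzi replicating inside host cells; inhibitors lower the luminescence signal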
# [3] = target: Inhibitor of nuclear factor kappa-B kinase subunit epsilon (Homo sapiens, UniProt Q14164); assay: Navigating the Kinome. Panel member name: IKBKE; type: functional
# [4] = target: Hepatocyte growth factor receptor (Homo sapiens, UniProt P08581); type: functional;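 further: kinase panel profiling across the kinome, with MET as the panel member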
# [5] = target: Leucine-rich repeat serine/threonine-protein kinase 2 (Homo sapiens, UniProt Q5S007); type: functional;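 further: value from a broad kinome-wide panel profiling study in which LRRK2 was one of the kinases tested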
# [6] = target: ALK tyrosine kinase receptor (Homo sapiens, UniProt Q9UM73); type: functional;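 further: ALK tested as one member of a kinase panel screen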
# ALK tyrosine kinase receptor, sequence (Q9UM73 whole entry): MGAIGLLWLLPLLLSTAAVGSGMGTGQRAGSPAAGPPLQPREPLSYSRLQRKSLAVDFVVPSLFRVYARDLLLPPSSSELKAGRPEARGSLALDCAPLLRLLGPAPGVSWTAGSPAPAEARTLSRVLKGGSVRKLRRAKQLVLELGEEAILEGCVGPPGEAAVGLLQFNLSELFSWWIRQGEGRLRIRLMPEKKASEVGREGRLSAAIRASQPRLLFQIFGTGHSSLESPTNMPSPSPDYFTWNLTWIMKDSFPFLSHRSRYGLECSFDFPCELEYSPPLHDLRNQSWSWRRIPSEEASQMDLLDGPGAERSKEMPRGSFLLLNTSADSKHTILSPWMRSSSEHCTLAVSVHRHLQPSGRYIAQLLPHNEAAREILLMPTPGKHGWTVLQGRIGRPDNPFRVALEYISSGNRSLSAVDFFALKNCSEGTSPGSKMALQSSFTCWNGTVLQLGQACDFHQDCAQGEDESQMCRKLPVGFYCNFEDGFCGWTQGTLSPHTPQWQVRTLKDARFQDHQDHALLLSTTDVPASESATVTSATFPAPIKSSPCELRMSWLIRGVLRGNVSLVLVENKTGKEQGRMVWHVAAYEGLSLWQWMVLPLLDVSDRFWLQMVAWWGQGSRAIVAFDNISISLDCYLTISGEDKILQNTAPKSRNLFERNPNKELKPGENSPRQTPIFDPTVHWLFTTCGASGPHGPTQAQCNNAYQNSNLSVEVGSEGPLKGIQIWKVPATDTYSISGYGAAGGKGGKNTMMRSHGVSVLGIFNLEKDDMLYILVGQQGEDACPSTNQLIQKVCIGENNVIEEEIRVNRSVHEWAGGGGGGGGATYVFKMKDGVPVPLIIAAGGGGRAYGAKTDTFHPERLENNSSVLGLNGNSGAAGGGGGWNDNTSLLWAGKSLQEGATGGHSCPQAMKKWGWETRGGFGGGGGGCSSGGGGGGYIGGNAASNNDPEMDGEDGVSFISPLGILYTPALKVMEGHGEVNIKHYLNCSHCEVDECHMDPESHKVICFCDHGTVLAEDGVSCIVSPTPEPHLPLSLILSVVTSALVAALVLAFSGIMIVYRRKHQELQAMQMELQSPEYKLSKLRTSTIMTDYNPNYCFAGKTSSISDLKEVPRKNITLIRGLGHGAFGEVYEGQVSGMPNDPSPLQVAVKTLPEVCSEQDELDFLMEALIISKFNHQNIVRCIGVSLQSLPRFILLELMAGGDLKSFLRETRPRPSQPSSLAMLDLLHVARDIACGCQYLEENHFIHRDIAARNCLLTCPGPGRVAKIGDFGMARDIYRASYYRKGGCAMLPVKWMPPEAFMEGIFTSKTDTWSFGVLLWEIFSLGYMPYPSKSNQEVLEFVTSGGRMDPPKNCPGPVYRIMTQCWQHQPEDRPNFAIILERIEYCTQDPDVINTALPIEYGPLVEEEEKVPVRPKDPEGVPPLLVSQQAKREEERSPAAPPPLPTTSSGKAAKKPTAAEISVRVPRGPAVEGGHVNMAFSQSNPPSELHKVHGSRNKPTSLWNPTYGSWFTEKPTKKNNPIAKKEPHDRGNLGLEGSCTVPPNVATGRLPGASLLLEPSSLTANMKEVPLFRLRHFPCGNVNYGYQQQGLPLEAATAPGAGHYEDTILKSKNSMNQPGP
# Hepatocyte growth factor receptor, sequence (P08581 whole entry): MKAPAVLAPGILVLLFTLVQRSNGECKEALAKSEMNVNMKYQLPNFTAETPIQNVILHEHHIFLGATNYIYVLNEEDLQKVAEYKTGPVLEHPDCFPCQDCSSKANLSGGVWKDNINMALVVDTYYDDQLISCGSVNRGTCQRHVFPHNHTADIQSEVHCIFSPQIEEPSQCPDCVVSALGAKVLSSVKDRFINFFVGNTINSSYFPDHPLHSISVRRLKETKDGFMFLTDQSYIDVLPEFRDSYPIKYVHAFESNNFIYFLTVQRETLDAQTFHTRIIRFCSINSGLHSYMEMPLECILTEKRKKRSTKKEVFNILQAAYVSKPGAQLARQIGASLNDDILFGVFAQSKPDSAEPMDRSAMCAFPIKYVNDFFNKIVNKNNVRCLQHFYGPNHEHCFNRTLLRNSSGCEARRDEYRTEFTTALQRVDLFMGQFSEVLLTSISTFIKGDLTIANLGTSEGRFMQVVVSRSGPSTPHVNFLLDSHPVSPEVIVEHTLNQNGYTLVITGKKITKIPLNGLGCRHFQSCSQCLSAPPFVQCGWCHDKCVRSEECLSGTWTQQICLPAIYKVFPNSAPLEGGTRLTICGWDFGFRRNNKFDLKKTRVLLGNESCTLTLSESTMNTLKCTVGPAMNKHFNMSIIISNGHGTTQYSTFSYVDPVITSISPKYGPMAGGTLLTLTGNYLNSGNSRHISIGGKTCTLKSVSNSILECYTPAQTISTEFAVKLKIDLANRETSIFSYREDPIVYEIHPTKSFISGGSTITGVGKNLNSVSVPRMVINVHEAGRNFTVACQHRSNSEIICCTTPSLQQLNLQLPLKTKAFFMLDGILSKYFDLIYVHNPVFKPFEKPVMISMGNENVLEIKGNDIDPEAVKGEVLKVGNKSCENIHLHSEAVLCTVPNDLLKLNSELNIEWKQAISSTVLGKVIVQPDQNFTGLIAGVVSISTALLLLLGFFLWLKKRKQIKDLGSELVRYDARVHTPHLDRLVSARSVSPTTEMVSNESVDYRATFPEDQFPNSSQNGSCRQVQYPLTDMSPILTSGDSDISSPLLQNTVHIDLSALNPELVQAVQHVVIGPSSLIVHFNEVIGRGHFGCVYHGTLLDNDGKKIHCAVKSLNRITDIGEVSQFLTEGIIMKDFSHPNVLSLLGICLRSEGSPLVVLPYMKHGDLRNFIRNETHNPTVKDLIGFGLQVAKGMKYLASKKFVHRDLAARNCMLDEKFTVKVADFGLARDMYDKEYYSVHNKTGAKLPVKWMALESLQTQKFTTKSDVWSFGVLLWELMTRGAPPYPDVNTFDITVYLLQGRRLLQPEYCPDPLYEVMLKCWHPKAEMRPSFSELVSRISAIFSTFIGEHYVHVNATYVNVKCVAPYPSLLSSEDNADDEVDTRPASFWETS
# Inhibitor of nuclear factor kappa-B kinase subunit epsilon, sequence (Q14164 whole entry): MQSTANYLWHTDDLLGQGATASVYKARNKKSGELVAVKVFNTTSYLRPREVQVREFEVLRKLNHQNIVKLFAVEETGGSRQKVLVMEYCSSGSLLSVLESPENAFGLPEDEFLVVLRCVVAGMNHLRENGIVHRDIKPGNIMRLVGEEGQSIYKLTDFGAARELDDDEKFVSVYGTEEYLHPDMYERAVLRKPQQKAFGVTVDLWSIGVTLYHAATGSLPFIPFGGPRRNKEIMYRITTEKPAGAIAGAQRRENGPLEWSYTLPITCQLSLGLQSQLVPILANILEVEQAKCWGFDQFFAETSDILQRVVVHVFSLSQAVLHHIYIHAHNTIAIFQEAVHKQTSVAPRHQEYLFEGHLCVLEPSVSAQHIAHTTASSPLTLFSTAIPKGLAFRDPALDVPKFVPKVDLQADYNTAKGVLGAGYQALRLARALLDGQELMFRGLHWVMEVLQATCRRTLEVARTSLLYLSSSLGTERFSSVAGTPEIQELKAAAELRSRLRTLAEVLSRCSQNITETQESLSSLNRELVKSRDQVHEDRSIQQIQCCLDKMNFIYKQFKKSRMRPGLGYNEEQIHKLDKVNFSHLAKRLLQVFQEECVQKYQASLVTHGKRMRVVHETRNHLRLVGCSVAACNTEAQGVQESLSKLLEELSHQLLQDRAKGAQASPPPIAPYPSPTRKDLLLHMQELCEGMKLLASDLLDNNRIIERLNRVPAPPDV
Ki [3],Ki [4],Ki [5],Ki [6],Structure (SMILES),EC50 [1],EC50 [2]
–,–,–,–,CN1CCN(C(c2ccc(C(F)(F)F)cc2)c2cc(Cl)c3cccnc3c2O)CC1 (stereo unspecified),8.87 µM (active),1.32 µM (active)
> 3.16 µM (inactive),> 2.51 µM (inactive),> 2.51 µM (inactive),> 6.31 µM (inactive),O=C(NC(CCO)c1ccccc1)c1ccc(-c2ccncc2)cc1 (stereo unspecified),–,–
